Where a name gives a salt, the structure may show the parent alone.
Key:
Settings in all cases: stereoisomer not certain
[1] = RP, Waters CORTECS T3, 100 × 2.1 mm, 2.7 µm, 0.3 mL/min, estimated dead time 0.73 min; A: water + 0.1% formic acid, pH 3; B: methanol + 0.1% formic acid, pH 3; gradient (min/%B) 0/5 5/5 25/100 30/100 30.1/5 35/5
[2] = RP, Waters CORTECS T3, 100 × 2.1 mm, 2.7 µm, 0.3 mL/min, estimated dead time 0.73 min; A: water + 0.1% formic acid, pH 3; B: methanol + 0.1% formic acid, pH 3; gradient (min/%B) 0/0 5/0 25/100 30/100 30.1/0 35/0
[3] = as above; remark: listed apart in the source
[4] = RP, Waters CORTECS T3, 100 × 2.1 mm, 2.7 µm, 0.2 mL/min, estimated dead time 1.1 min; A: water + 0.1% formic acid, pH 3; B: methanol + 0.1% formic acid, pH 3; gradient (min/%B) 0/0 1/0 6/5 30/100 35/100 35.1/0 40/0
[5] = RP, Waters CORTECS T3, 100 × 2.1 mm, 2.7 µm, 0.1 mL/min, estimated dead time 2.2 min; A: water + 0.1% formic acid, pH 3; B: methanol + 0.1% formic acid, pH 3; gradient (min/%B) 0/0 1/0 6/5 30/100 35/100 35.1/0 40/0
[6] = RP, Waters CORTECS T3, 100 × 2.1 mm, 2.7 µm, 0.2 mL/min, estimated dead time 1.1 min; A: water + 0.1% formic acid, pH 3; B: methanol + 0.1% formic acid, pH 3; gradient (min/%B) 0/0 1/0 6/5 30/100 35/100 35.1/0 40/0; remark: listed apart in the source
[7] = RP, Waters CORTECS T3, 100 × 2.1 mm, 2.7 µm, 0.15 mL/min, estimated dead time 1.5 min; A: water + 0.1% formic acid, pH 3; B: methanol + 0.1% formic acid, pH 3; gradient (min/%B) 0/0 1/0 6/5 30/100 35/100 35.1/0 40/0
[8] = RP, Waters CORTECS T3, 100 × 2.1 mm, 2.7 µm, 0.3 mL/min, estimated dead time 0.73 min; A: water + 0.1% formic acid, pH 3; B: methanol + 0.1% formic acid, pH 3; gradient (min/%B) 0/0 1/0 6/5 30/100 35/100 35.1/0 40/0
[9] = as above; remark: listed apart in the source
[10] = RP, Waters CORTECS T3, 100 × 2.1 mm, 2.7 µm, 0.25 mL/min, estimated dead time 0.88 min; A: water + 0.1% formic acid, pH 3; B: methanol + 0.1% formic acid, pH 3; gradient (min/%B) 0/0 1/0 6/5 30/100 35/100 35.1/0 40/0
[11] = RP, Waters CORTECS T3, 100 × 2.1 mm, 2.7 µm, 0.1 mL/min, estimated dead time 2.2 min; A: water + 0.1% formic acid, pH 3; B: methanol + 0.1% formic acid, pH 3; gradient (min/%B) 0/5 5/5 25/95 25.1/100 35/100 35.1/5 45/5
[12] = RP, Waters CORTECS T3, 100 × 2.1 mm, 2.7 µm, 0.2 mL/min, estimated dead time 1.1 min; A: water + 0.1% formic acid, pH 3; B: methanol + 0.1% formic acid, pH 3; gradient (min/%B) 0/5 5/5 25/95 25.1/100 35/100 35.1/5 45/5
[13] = RP, Waters CORTECS T3, 100 × 2.1 mm, 2.7 µm, 0.3 mL/min, estimated dead time 0.73 min; A: water + 0.1% formic acid, pH 3; B: methanol + 0.1% formic acid, pH 3; gradient (min/%B) 0/5 5/5 25/95 25.1/100 35/100 35.1/5 45/5
[14] = RP, Waters CORTECS T3, 100 × 2.1 mm, 2.7 µm, 0.15 mL/min, estimated dead time 1.5 min; A: water + 0.1% formic acid, pH 3; B: methanol + 0.1% formic acid, pH 3; gradient (min/%B) 0/5 5/5 25/95 25.1/100 35/100 35.1/5 45/5
[15] = RP, Waters ACQUITY UPLC BEH C18, 100 × 2.1 mm, 1.7 µm, 0.2 mL/min, estimated dead time 1.1 min; A: water + 0.1% formic acid, pH 3; B: methanol + 0.1% formic acid, pH 3; gradient (min/%B) 0/5 5/5 25/100 30/100 30.1/5 35/5
[16] = RP, Waters CORTECS T3, 100 × 2.1 mm, 2.7 µm, 0.25 mL/min, estimated dead time 0.88 min; A: water + 0.1% formic acid, pH 3; B: methanol + 0.1% formic acid, pH 3; gradient (min/%B) 0/5 5/5 25/95 25.1/100 35/100 35.1/5 45/5
[17] = RP, Waters ACQUITY UPLC BEH C18, 100 × 2.1 mm, 1.7 µm, 0.1 mL/min, estimated dead time 2.2 min; A: water + 0.1% formic acid, pH 3; B: methanol + 0.1% formic acid, pH 3; gradient (min/%B) 0/5 5/5 25/100 30/100 30.1/5 35/5
[18] = RP, Waters ACQUITY UPLC BEH C18, 100 × 2.1 mm, 1.7 µm, 0.1 mL/min, estimated dead time 2.2 min; A: water + 0.1% formic acid, pH 3; B: methanol + 0.1% formic acid, pH 3; gradient (min/%B) 0/5 5/5 25/95 25.1/100 35/100 35.1/5 45/5
[19] = HILIC, Merck SeQuant ZIC-HILIC, 150 × 2.1 mm, 5 µm, 0.75 mL/min, estimated dead time 0.44 min; A: water + 10 mM ammonium formate, pH 6; B: 5% water + 95% acetonitrile + 10 mM ammonium formate, pH 6; gradient (min/%B) 0/95 5/95 20/57 25/57 30/95 40/95
[20] = HILIC, Merck SeQuant ZIC-HILIC, 150 × 2.1 mm, 5 µm, 0.75 mL/min, estimated dead time 0.44 min; A: water + 0.1% acetic acid + 10 mM ammonium acetate, pH 4; B: 5% water + 95% acetonitrile + 0.1% acetic acid + 10 mM ammonium acetate, pH 4; gradient (min/%B) 0/95 5/95 20/57 25/57 30/95 40/95
[21] = HILIC, Thermo Scientific Accucore HILIC, 100 × 2.1 mm, 2.6 µm, 0.5 mL/min, estimated dead time 0.44 min; A: water + 0.1% formic acid + 10 mM ammonium formate, pH 3; B: 5% water + 95% acetonitrile + 0.1% formic acid + 10 mM ammonium formate, pH 3; gradient (min/%B) 0/95 5/95 20/57 25/57 30/95 40/95
[22] = RP, Waters ACQUITY UPLC BEH C18, 100 × 2.1 mm, 1.7 µm, 0.2 mL/min, estimated dead time 1.1 min; A: water + 0.025% formic acid + 20 mM ammonium acetate + 0.055% ammonium hydroxide, pH 7; B: methanol; gradient (min/%B) 0/5 5/5 25/100 30/100 30.1/5 35/5
[23] = HILIC, Waters XBridge BEH Amide, 100 × 2.1 mm, 2.5 µm, 0.5 mL/min, estimated dead time 0.44 min; A: water + 0.1% acetic acid + 10 mM ammonium acetate, pH 4; B: 5% water + 95% acetonitrile + 0.1% acetic acid + 10 mM ammonium acetate, pH 4; gradient (min/%B) 0/95 5/95 20/57 25/57 30/95 40/95

Row | LC retention time [3] [min] | LC retention time [6] [min] | LC retention time [8] [min] | LC retention time [12] [min] | LC retention time [14] [min] | LC retention time [15] [min] | LC retention time [16] [min] | LC retention time [18] [min] | LC retention time [19] [min] | LC retention time [20] [min] | LC retention time [21] [min] | LC retention time [22] [min] | LC retention time [23] [min] | SMILES | other results
1 | 8.03 | 8.96 | 7.13 | 12.6 | 8.37 | 6.44 | 5.25 | 10.9 | 11 | 10.6 | 9.89 |  |  | N[C@@H](Cc1ccc(O)c([N+](=O)[O-])c1)C(=O)O [3-NITRO-L-TYROSINE] | LC retention time [1]: 4.34 min; LC retention time [2]: 7.98 min; LC retention time [4]: 8.81 min; LC retention time [5]: 6.31 min; LC retention time [7]: 10.4 min; LC retention time [9]: 6.9 min; LC retention time [10]: 7.83 min; LC retention time [11]: 10.8 min; LC retention time [13]: 4.27 min; LC retention time [17]: 10.8 min
2 | 3.7 | 5.13 | 3.71 | 9.19 | 3.97 | 3.16 | 2.43 | 6.08 |  | 8.54 | 2.99 | 1.38 |  | CC(=O)NCCCC(=O)[O-] [4-ACETAMIDOBUTANOATE] | 
3 | 11.3 | 13.3 | 11.7 | 16.9 | 13.1 | 11.9 | 10.9 | 15.6 | 12.9 | 11.9 | 2.01 |  |  | O=C(O)CCCCCC(=O)O [6-CARBOXYHEXANOATE] | 
4 | 2.13 | 3.02 | 2.13 | 5.88 | 3.09 | 2.68 | 1.89 | 5.22 |  |  | 1.05 | 2.03 | 1.66 | Nc1ccccc1S(=O)(=O)O [ANILINE-2-SULFONIC ACID] | 
5 | 15.4 | 18.4 | 16.9 | 21.8 | 17.6 | 16.3 | 15.6 | 19.9 | 7.14 | 9.72 | 1.1 | 1.41 |  | O=C(O)CCCCCCCC(=O)O [AZELAIC ACID] | 
6 | 8.31 | 9.43 | 7.57 | 13.3 | 9.18 | 8.3 | 6.13 | 12.3 |  | 7.68 | 5.85 | 2.14 |  | CSCCC(NC=O)C(=O)O [FORMYL-L-METHIONYL PEPTIDE] | 
7 | 8.35 | 9.62 | 7.71 | 13.6 | 9.5 | 8.8 | 6.23 | 12.8 |  | 3.84 | 0.54 | 5.76 | 0.95 | O=S(=O)(O)Oc1c[nH]c2ccccc12 [INDOXYL SULFATE] | 
8 |  | 6.93 | 5.37 | 10.8 | 4.68 | 3.3 | 2.9 | 2.76 | 8.73 | 8.42 | 4.88 | 1.41 | 7.97 | O=c1[nH]cnc2c1ncn2C1OC(CO)C(O)C1O (stereo not given) [INOSINE] | 
9 | 13.5 | 16.1 | 14.6 | 19.6 | 15.6 | 14.3 | 13.5 | 18 |  |  | 1.39 |  |  | O=C(O)CCCCCCC(=O)O [SUBERIC ACID] | 

From the RepoRT retention time repository (doi:10.1016/j.jchromb.2020.122105)
